Assays:
[1] = system: RAW 264.7 cells; assay: NO production inhibition in LPS-induced RAW 264.7 cells (Griess reagent method); type: cell-based; conditions: LPS-induced (10 μg/mL) RAW 264.7 cells, 24 h, mean ± standard deviation (n = 3)
Experimental: RAW 264.7 cells were cultured as above, then divided into blank control, LPS-induced (10 μg/mL, model), and sample-treated groups. After 24 h, supernatants were centrifuged (12,000 r/min, 5 min) and collected. NO production was assessed using the standard Griess reagent method (Fan et al. [2023]).
Inhibition rate (%) = [(NOmodel – NOsample)/(NOmodel – NOblank)] × 100%.

[2] = system: RAW264.7 macrophages; assay: Cell viability assay (CCK-8) in RAW264.7 macrophages; type: cell-based; conditions: RAW 264.7 cells, 24 h, tested at 20, 40, 80 μmol/L
Experimental: RAW264.7 macrophages were seeded in 96-well plates (5 × 10^4 cells/well) and cultured at 37 °C with 5% CO₂ for 24 h. After adhesion, test samples (20, 40, 80 μmol/L) or medium (blank) were added and incubated for 24 h. Subsequently, 10 μL of CCK-8 solution was added, and after 2 h of incubation, the absorbance was measured at 450 nm.
Cell viability (%) = (ODsample/ODblank) × 100%

Row | SMILES | IC50 ([1]; Mus musculus, RAW264.7) [µM] | Cytotoxicity [2] [µmol/L] | IC50 [1] [µM]
1 | N=C(N)NN [Aminoguanidine, aminoguanidine, reference compound] |  | > 80 | 12.5 ± 1.8
2 | CC1(C)OC(=O)c2c1ccc1c2COC1=O [Compound 1, Marasmiellactone R] | 18.2 ± 1.9 | > 80 | 
3 | C[C@]1(CO)OC(=O)c2c1ccc1c2COC1=O [Compound 2, Marasmiellactone S] | 16.7 ± 1.6 | > 80 | 
4 | CC(=O)OC[C@@]1(C)OC(=O)c2c1ccc1c2COC1=O [Compound 3, 10-O-acetylmarasmiellactone S] | 22.1 ± 2.6 | > 80 | 
5 | C[C@@H]1OC(=O)c2c1ccc1c2COC1=O [Compound 4, 10-normarasmiellactone R] | 15.5 ± 1.4 | > 80 | 
6 | CC(C)(CC(=O)O)c1ccc(C(=O)O)c2c1C(=O)NC2=O [Compound 5, Marasmielolic acid A] | 53.5 ± 3.9 | > 80 | 
7 | CC(C)(CC(=O)O)c1ccc(C(=O)O)c2c1C(=O)OC2 [Compound 6, Marasmielolic acid B] | 65.4 ± 4.6 | > 80 | 

Second part, led by results:

Row | IC50 ([1]; Mus musculus, RAW264.7) [µM] | SMILES | Cytotoxicity [2] [µmol/L] | IC50 [1] [µM]
8 | 50.8 ± 3.4 | COC(=O)C(C)(C)c1ccc(C(=O)O)c2c1C(=O)OC2O (racemic) [Compound 8, (±)-Marasmielolic acid D] | > 80 | 
9 | 69.2 ± 3.1 | CC(C)(C(=O)O)c1ccc(C(=O)O)c2c1C(=O)OC2 [Compound 7, normarasmielolic acid B] | > 80 | 
10 | > 100 | COC(=O)c1c(C(=O)O)ccc2c1C(=O)OC2(C)C [Compound 9, Marasmielolic acid E] | > 80 | 
11 | > 100 | COC(=O)c1c(C(=O)O)ccc2c1C(=O)C(O)=CC2(C)C [Compound 10, Marasmielolic acid F] | > 80 | 
